Data as given in publication PMC7156458, “Synthetic biology based construction of biological activity-related library of fungal decalin-containing diterpenoid pyrones” (Nature Communications, 2020).
Like-named read-outs stand apart in the source and are kept apart here.

Assays:
[1] = cytotoxicity in Drosophila l(2)mbn cells; assay type: cell-based; details: Drosophila, l(2)mbn cells (larval blood cell-derived)
Protocol: (§1) We screened the DDPs on the Drosophila assay system for cytotoxicity, inhibitory activity of innate immune signalling and insecticidal activity. The cytotoxicity of the DDPs was evaluated using two cell lines, embryonic macrophage-derived DL1 cells[58]–[60] and larval blood cell-derived l(2)mbn cells, and their IC50 values are listed in Supplementary Table 23.

[2] = system: l(2)mbn cells; test: cytotoxicity in Drosophila l(2)mbn cells; assay type: cell-based; details: for Luminescence Raw1: replicate 1; for Luminescence Raw2: replicate 2; for IC50: Drosophila melanogaster, cytotoxicity
Protocol: as §1

[3] = replicate 1, relative to DMSO 1%, read-out: % viability, viability 1
[4] = replicate 2, relative to DMSO 1%, read-out: % viability, viability 2
[5] = average of two replicates, read-out: IC50 Average
[6] = replicate 1, read-out: IC50 (1)
[7] = replicate 2, read-out: IC50 (2)

| Structure (SMILES) | viability at 0.04 µM [1, 3] [%] | viability at 0.04 µM [1, 4] [%] | viability at 0.2 µM [1, 3] [%] | viability at 0.2 µM [1, 4] [%] | viability at 1 µM [1, 3] [%] | viability at 1 µM [1, 4] [%] | viability at 4 µM [1, 3] [%] | viability at 4 µM [1, 4] [%] | viability at 10 µM [1, 3] [%] | viability at 10 µM [1, 4] [%] | viability at 20 µM [1, 3] [%] | viability at 20 µM [1, 4] [%] | Luminescence Raw1 ([2]; 0.04 µM) | Luminescence Raw2 ([2]; 0.04 µM) | Luminescence Raw1 ([2]; 0.2 µM) | Luminescence Raw2 ([2]; 0.2 µM) | Luminescence Raw1 ([2]; 1 µM) | Luminescence Raw2 ([2]; 1 µM) | Luminescence Raw1 ([2]; 4 µM) | Luminescence Raw2 ([2]; 4 µM) | also measured |
| --- | --- | --- | --- | --- | --- | --- | --- | --- | --- | --- | --- | --- | --- | --- | --- | --- | --- | --- | --- | --- | --- |
| C=C1CCC2C(C)(CCC=C(C)C)C(O)CCC2(C)C1Cc1c(OC)oc(CO)c(C(=O)OC)c1=O (stereo not drawn) [Compound 13] | 144 | 152 | 160 | 139 | 157 | 122 | 90.9 | 79.1 | 20.9 | 24.3 | 10.9 | 9.4 | 3699578 | 3900517 | 4107234 | 3571875 | 4025701 | 3137197 | 2332844 | 2029883 | Luminescence Raw1 ([2]; 10 µM): 535109; Luminescence Raw2 ([2]; 10 µM): 623453; Luminescence Raw1 ([2]; 20 µM): 280543; Luminescence Raw2 ([2]; 20 µM): 241241; IC50 [2, 5]: 8.46 µM; IC50 ([2]; average±SEM, read-out: IC50): 8.46 ± 0.98 µM; IC50 [2, 6]: 9.44 µM; IC50 [2, 7]: 7.47 µM |
| C=C1CC[C@H]2[C@]3(C)C[C@H](C=C(C)C)O[C@H]3CC[C@]2(C)[C@@H]1Cc1c(OC)oc(CO)c(C)c1=O [Compound 18] | 116 | 96.2 | 131 | 115 | 108 | 131 | 64.8 | 91.8 | 7.4 | 8.02 | 9.23 | 8.3 | 2968023 | 2468099 | 3357960 | 2956480 | 2768193 | 3359403 | 1663102 | 2355206 | Luminescence Raw1 ([2]; 10 µM): 190041; Luminescence Raw2 ([2]; 10 µM): 205906; Luminescence Raw1 ([2]; 20 µM): 236915; Luminescence Raw2 ([2]; 20 µM): 213117; IC50 [2, 5]: 6 µM; IC50 ([2]; average±SEM, read-out: IC50): 6 ± 1.09 µM; IC50 [2, 6]: 4.92 µM; IC50 [2, 7]: 7.09 µM |
| C=C1CC[C@@H]2[C@](C)(CC[C@H]3O[C@H](C=C(C)C)C[C@@]23C)[C@@H]1Cc1c(OC)oc(CO)c(C)c1=O [Compound 20] | 95.7 | 102 | 106 | 112 | 71.1 | 80.9 | 1.55 | 2.17 | 1.88 | 1.76 | 1.4 | 2.05 | 6010744 | 6416731 | 6637959 | 7047592 | 4464964 | 5080853 | 97218 | 136159 | Luminescence Raw1 ([2]; 10 µM): 118130; Luminescence Raw2 ([2]; 10 µM): 110559; Luminescence Raw1 ([2]; 20 µM): 87844; Luminescence Raw2 ([2]; 20 µM): 128947; IC50 [2, 5]: 1.45 µM; IC50 ([2]; average±SEM, read-out: IC50): 1.45 ± 0.13 µM; IC50 [2, 6]: 1.32 µM; IC50 [2, 7]: 1.58 µM |
| C=C1CC[C@H]2[C@]3(C)C[C@@H](C=C(C)C)O[C@H]3CC[C@]2(C)[C@@H]1Cc1c(OC)oc(CO)c(C)c1=O [Compound 17] | 35.7 | 83.5 | 61.4 | 95.4 | 76.8 | 97 | 31.4 | 22.2 | 1.94 | 1.93 | 1.88 | 3.89 | 2242516 | 5241058 | 3856705 | 5991979 | 4822512 | 6091579 | 1969854 | 1392467 | Luminescence Raw1 ([2]; 10 µM): 122097; Luminescence Raw2 ([2]; 10 µM): 121376; Luminescence Raw1 ([2]; 20 µM): 118130; Luminescence Raw2 ([2]; 20 µM): 243967; IC50 [2, 5]: 1.78 µM; IC50 ([2]; average±SEM, read-out: IC50): 1.78 ± 0.43 µM; IC50 [2, 6]: 1.35 µM; IC50 [2, 7]: 2.22 µM |
| C=C1CCC2C(C)(CCC=C(C)C)C(=O)CCC2(C)C1Cc1c(O)c(C)c(C)oc1=O (stereo not drawn) [Compound 8] | 86 | 82.2 | 87.7 | 91.3 | 86.7 | 91.8 | 70.7 | 85.1 | 2.83 | 2.94 | 1.82 | 2.53 | 5399824 | 5163481 | 5509158 | 5734687 | 5444928 | 5762112 | 4437905 | 5343895 | Luminescence Raw1 ([2]; 10 µM): 177623; Luminescence Raw2 ([2]; 10 µM): 184474; Luminescence Raw1 ([2]; 20 µM): 114164; Luminescence Raw2 ([2]; 20 µM): 158874; IC50 [2, 5]: 5.14 µM; IC50 ([2]; average±SEM, read-out: IC50): 5.14 ± 0.3 µM; IC50 [2, 6]: 4.83 µM; IC50 [2, 7]: 5.44 µM |
| C=C1CC[C@H]2[C@]3(C)C[C@H](C=C(C)C)O[C@H]3CC[C@]2(C)[C@@H]1Cc1c(OC)oc(C)c(C)c1=O [Compound 24] | 135 | 110 | 137 | 130 | 130 | 122 | 10.4 | 8.47 | 6.42 | 6.23 | 6.64 | 6.04 | 3470038 | 2834452 | 3507915 | 3346307 | 3332960 | 3138530 | 267094 | 217335 | Luminescence Raw1 ([2]; 10 µM): 164693; Luminescence Raw2 ([2]; 10 µM): 160006; Luminescence Raw1 ([2]; 20 µM): 170462; Luminescence Raw2 ([2]; 20 µM): 154958; IC50 [2, 5]: 3.04 µM; IC50 ([2]; average±SEM, read-out: IC50): 3.04 ± 0.16 µM; IC50 [2, 6]: 3.2 µM; IC50 [2, 7]: 2.88 µM |
